Measurements: patent US8697840B2, “Peptide inhibition of lung epithelial apoptosis and pulmonary fibrosis” (Board of Regents, The University of Texas System, priority 2008, dated 2014)

Columns and labels:
[1] = system: bleomycin-induced lung epithelial cell (LEC) apoptosis; test: TUNEL staining for apoptosis of lung sections of bleo-treated mice; type: in vivo, mouse; conditions: for Lung epithelial cell apoptosis: appearance of cells / Lung epithelial cell apoptosis: cell death: bleo-treated animals, peptide one day after bleo; for Lung epithelial cell apoptosis: appearance of cells: lung tissue day 21; for Lung epithelial cell apoptosis: cell death: lung tissue day 21, TUNEL
Procedure: The mice were sacrificed 24, 48 and 72 h later. Lungs were excised, inflated and fixed in formalin, and […] sections were analyzed by TUNEL staining. […]

[2] = system: bleo-induced lung injury in the mouse; test: Lung hydroxyproline (collagen deposition) after bleo-induced lung injury; type: in vivo; conditions: for bleomycin-induced collagen deposition (hPro content, % of control): 10 mM peptide i.p. osmotic pump 7 days after bleo
Procedure: (§1) FIGS. 10A and 10B are graphs showing the effect of PP-1 on fibrosis following bleo-induced lung injury in the mouse. […] 24 h after bleo, 0.1 ml osmotic pump filled with 10 mM PP-1 (designated “Bleo+PP” in Figures) or CP1 control scrambled peptide (“Bleo+CP1”) were implanted intraperitoneally. Lungs were harvested after 21 days, homogenized and the homogenates were subjected to the analysis of hydroxyproline or desmosine levels.
Anesthetized mice received intranasal bleomycin HCl solution containing 40 μg/50μl in sterile saline solution. After 24 h, 7 days or 14 days 10 mM PP-1 (“Bleo+PP-1”) or control peptide (Bleo+CP-1) were given ip using a 0.1 ml osmotic pump. Mice were sacrificed and lungs excised 21 days later. Lung homogenates were analyzed for hydroxyproline. Results are expressed a % of control hydroxyproline concentration.
Anesthetized mice received intranasal bleomycin HCl solution containing 40 μg/50 μl in sterile saline solution. After day 7, 10 mM peptide PP-2 (“Bleo+PP-2”) or control peptide (“Bleo+CP-2) were given intraperitoneally using a 0.1 ml osmotic pump. Lungs were excised after 21 days, lungs were homogenized and the homogenates were analyzed for hydroxyproline. Results are expressed a % of control hydroxyproline concentration.
The hPro content of the whole mouse lungs tissues were measured using the technique of Woessner J F, 1961, Arch. Biochem. Biophys. 93:440-7). Lung tissue from each animal was homogenized in 1.0 ml of extraction buffer. One ml 12N HCl was added, and the samples were hydrolyzed at 110° C. for 24 h. After cooling, 5 μl of the samples were mixed with 5 μl of citrate-acetate buffer (5% citric acid, 1.2% glacial acetic acid, 7.25% sodium acetate and 3.4% sodium hydroxide) and 100 μl of chloramine-T solution (1.4% chloramine-T, 10% N-propanol, and 80% citrate acetate buffer) in 96 well plates. The mixture was incubated for 20 min at room temperature. A total of 100 μl of Ehrlich's solution (2.5 g p-dimethylaminobenzaldehyde added to 9.3 ml of n-propanol and 3.9 ml of 70% perchloric acid) was added to each well and the plates incubated at 65° C. for 18 min. The absorbance of each sample was measured at 550 nm. Standard curves were generated for each experiment using a known concentration of reagent hPro. Results were expressed as % changes in hPro content (with total hPro content of saline-treated control mouse lungs considered 100%).
(§2) Lungs were harvested after 21 days, homogenized and the homogenates were subjected to the analysis of hydroxyproline as above (FIG. 10A) or desmosine (FIG. 10B). The effect of PP-1 on fibrosis in bleo-induced mouse lung injury was evaluated. Mice were treated with saline or 50 μg Bleo intranasally were implanted one day later with, 0.1 ml osmotic pumps i.p. The pumps were filled with either 10 mM (2.92 mg/100 μl) PP-1 (“Bleo+PP-1”) or control scrambled peptide CP-1 (“Bleo+CP-1”).

[3] = system: bleo-induced collagen deposition in mouse lung; test: Mason's Trichrome stain for collagen of lung sections of bleo-treated mice; type: in vivo; conditions: for Collagen content in lung section: bleo-treated animals, peptide one day after bleo, day 21, trichrome stain
Procedure: FIG. 13 is a set of photomicrographs showing that PP-1 prevents bleo-induced collagen deposition in mouse lung. Mice were treated with bleo (50 μg/ml) by intranasal instillation followed by treatment with PP-1 (10 nM) or control peptide CP-1 on day 2. Lungs were excised on day 21, inflated and fixed in formalin, a sectioned into […] sections which were subjected to Mason's Trichrome stain (a three-color stain that stains cell nuclei red, collagen green or blue, and cytoplasm red). Blue staining indicates collagen deposition in bleo-treated lung sections.
(§3) FIGS. 14A & 14B is a series of photomicrographs of lung epithelial tissue stained with Mason's trichrome stain for collagen (FIG. 10A) and by TUNEL staining for apoptosis (FIG. 10B). Bleo-treated animals were instilled with either PP-1, PP-2 or control peptide CP-1 one day after bleo treatment, The lungs were removed on day 21, subjected to the staining procedures and examined for collagen accumulation or apoptosis.
Collagen deposition in mouse lung after bleo treatment was investigated. Mice were treated with bleo (50 μg/ml) by intranasal instillation followed by treatment with PP-1 (10 nM) (designated as PP in Figure) or control peptide CP-1 (designated CP in FIG. 13) on day 2. Lungs were excised on day 21, inflated and fixed in formalin, a sectioned into […] sections which were subjected to Mason's Trichrome stain (a three-color stain that stains cell nuclei red, collagen green or blue, and cytoplasm red).
(§4) A comparison was made of normal and bleo-treated lung, and the effect of PP-1 and PP-2 on the bleo-treated lungs were examined. Animals were treated with bleo and peptides as above. Lung tissue was removed at day 21 and stained with Mason's trichrome stain for collagen and subjected to TUNEL staining for apoptosis.

bleo-treated lung = test: Histology of lung tissue of bleo-treated animals, pathological observations; type: in vivo, mouse; conditions: conclusion from Table 3, day 21
Description: as §3, §4

[4] = system: uPAR-dependent adhesion of cells to vitronectin; conditions: Wei Y et al., 1996, Science 273; cited from earlier work
[5] = molecular target: integrin-caveolin-uPAR complexes (Homo sapiens, UniProt Q03405); conditions: at a concentration that blocked adhesion; Wei Y et al., 1996; cited from earlier work
cleaved PARP = test: IHC of lung sections of bleo-treated mice: cleaved PARP; type: in vivo, mouse; conditions: peptide 4.5 μM i.p. days 1 and 2, bleomycin 40 μg/50 μl intranasal day 2; up to 72 h
Procedure: On day 2 mice were treated with bleomycin (40 μg/50μl) by intranasal instillation. Mice were sacrificed 24, 48 and 72 h after later, lungs were excised, inflated and fixed in formalin, and […] sections were analyzed by immunohistochemistry (IHC) using an antibody specific for cleaved PARP.
(§5) For immunohistochemical (IHC) analysis, lungs were inflated at constant pressure of 20 cm H2O, removed and fixed overnight in 2% paraformaldehyde in PBS. Tissue was dehydrated by passage through a standard alcohol series and was embedded in paraffin. 5 μm sections were deparaffinized with xylene followed by incubation with 100% and 95% alcohol. After 10 min of antigen retrieval, the slides were incubated with H2O2 for 30 min to quench endogenous peroxidase. Slides were incubated overnight with the respective antibodies in PBS containing 0.1% Tween 20 and further processed using Lab vision kit (Freemont Calif.).

p53 = test: IHC of lung tissue of bleo-treated mice: p53; type: in vivo, mouse; conditions: bleomycin-treated mice, 24-72 h
Procedure: as §5
(§6) An IHC study was conducted to analyze lung tissue for expression p53, uPA, uPAR, PAI-1 and cleaved caspase 3 (Table 2). […] These IHC observations were confirmed by Western blotting (see Example II and FIG. 5).

PAI-1 = test: IHC of lung tissue of bleo-treated mice: PAI-1; type: in vivo, mouse; conditions: bleomycin-treated mice, 24-72 h
Procedure: as §5, §6

[6] = system: bleo-induced lung injury in the mouse; test: Lung desmosine (elastin) after bleo-induced lung injury; type: in vivo; conditions: 50 μg Bleo intranasally; 10 mM peptide in 0.1 ml osmotic pump i.p. one day later; lungs after 21 days
Procedure: as §1, §2

[7] = bleomycin 40 μg/50 μl intranasal, lungs after 21 days

Sequence of integrin-caveolin-uPAR complexes (Q03405 23-305, one chain of several): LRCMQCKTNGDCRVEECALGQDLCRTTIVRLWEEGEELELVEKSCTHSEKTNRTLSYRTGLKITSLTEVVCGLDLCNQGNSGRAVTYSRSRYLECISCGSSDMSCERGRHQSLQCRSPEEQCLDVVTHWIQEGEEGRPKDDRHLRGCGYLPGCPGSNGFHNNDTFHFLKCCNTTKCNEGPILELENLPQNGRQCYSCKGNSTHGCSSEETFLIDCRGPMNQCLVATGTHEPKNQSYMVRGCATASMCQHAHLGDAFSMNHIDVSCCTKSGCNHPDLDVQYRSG

AESTYHHLSLGYMYTLN [CP-2]
Lung epithelial cell apoptosis: appearance of cells [1]: Fibrotic cells, | Lung epithelial cell apoptosis: cell death [1]: 90% cell | bleomycin-induced collagen deposition (hPro content, % of control) [2, 7]: but not its control peptide CP-2 reversed bleomycin induced increases in collagen deposition | Collagen content in lung section [3]: Increased | effect on bleo-induced lung injury / Bleo-damaged lung tissue (bleo-treated lung): did not have any discernible effect on Bleo-damaged lung tissue | uPAR-dependent adhesion of cells to vitronectin [4]: inhibited uPAR-dependent adhesion of cells to vitronectin | disruption of integrin-caveolin-uPAR complexes [5]: disrupted integrin-caveolin-uPAR complexes

NYHYLESSMTALYTLGH [PP-2, initially disclosed as scrambled control for Peptide 25 of Wei Y et al]
Lung epithelial cell apoptosis: appearance of cells [1]: No fibrosis, | Lung epithelial cell apoptosis: cell death [1]: 11% cell | bleomycin-induced collagen deposition (hPro content, % of control) [2, 7]: significantly suppressed collagen deposition | Collagen content in lung section [3]: Minimal | development of bleo-induced lung fibrosis ([3]; conclusion from Table 3, day 21): prevented the development of bleo-induced lung fibrosis | effect on bleo-induced lung injury / Bleo-damaged lung tissue (bleo-treated lung): protected LECs from bleo-induced lung injury | uPAR-dependent adhesion of cells to vitronectin [4]: but not its control (which is PP-2 here) inhibited uPAR-dependent adhesion of cells to vitronectin | disruption of integrin-caveolin-uPAR complexes [5]: but not its control, disrupted integrin-caveolin-uPAR complexes

WGIDKAFFTTSTVTYKWFRY [CP-1, scrambled control peptide for PP-1 with the same amino acid composition]
Lung epithelial cell apoptosis: appearance of cells [1]: Fibrotic cells, | Lung epithelial cell apoptosis: cell death [1]: 90% cell | apoptosis (TUNEL positive cells) ([1]; peptide 4.5 μM i.p. on day 1 and 2, bleomycin 40 μg/50 μl intranasal on day 2, 24, 48 and 72 h): but not with control peptide, reversed bleomycin-induced apoptosis | cleavage (degradation) of PARP in lung (cleaved PARP): but not control peptide CP-1 reversed such PARP degradation | p53 expression in lung tissue (IHC) (p53): but not control peptide CP-1, blocked bleomycin induced p53 expression | PAI-1 expression in lung tissue (IHC) (PAI-1): but not control peptide (CP-1) reduced this PAI-1 expression | lung hydroxyproline levels ([2]; 50 μg Bleo intranasally, 10 mM peptide in 0.1 ml osmotic pump i.p. one day later, lungs after 21 days): did not have this effect | bleomycin-induced collagen deposition (hydroxyproline, % of control) ([2]; bleomycin 40 μg/50 μl intranasal, 10 mM peptide i.p. osmotic pump after 24 h, 7 days or 14 days, lungs 21 days): but not control peptide CP-1 reversed bleomycin-induced increases in collagen deposition | lung desmosine levels [6]: did not have this effect | Collagen content in lung section [3]: Increased | effect on bleo-induced lung injury / Bleo-damaged lung tissue (bleo-treated lung): did not have any discernible effect on Bleo-damaged lung tissue
